The numbers were not newly measured in US12312370B2, “Immunoproteasome inhibitors” (Principia Biopharma Inc., priority 2017, dated 2025), which cites them from elsewhere.

One data set concerns prostate PC-3 cell line. The following applies: PC-3 cell line in vitro; cited from earlier work.
The subject of a further data set is tumor growth. The following applies: in vivo; cited from earlier work.

As for `CCCCCCC(=O)N[C@@H](C)C(=O)N[C@@H](CC(C)C)C(=O)[C@@]1(CO[Si](C)(C)C(C)(C)C)CO1` [UK-101], in the data set on prostate PC-3 cell line, the apoptosis result was “induced apoptosis”. For the same compound, in the data set on tumor growth, the tumor growth result is “significantly suppressed tumor growth”.
